Results published in ChEMBL document CHEMBL1240352, “Panel of prototypical raltegravir-resistant infectious molecular clones in a novel integrase-deleted cloning vector” (2010).

Assays:
Assay type in all cases: functional
[1] = tested on: Human immunodeficiency virus 1; experiment: Antiviral activity against Human immunodeficiency virus 1 clone 2253 harboring integrase S17N, V31I, I72V, L101I, T124A, K156N,V201I, I220M, D279G, R284G mutation transfected into human C8166 cells assessed as decrease in compound susceptibility relative to wild-type
[2] = tested on: Human immunodeficiency virus 1; experiment: Antiviral activity against Human immunodeficiency virus 1 clone 1288 harboring integrase M154L and E11D, V31I, L101I, K160R, F181L,V201I, T206S, D256E mutation transfected into human C8166 cells assessed as decrease in compound susceptibility relative to wild-type
[3] = tested on: Human immunodeficiency virus 1; experiment: Antiviral activity against Human immunodeficiency virus 1 clone 4736_2 harboring integrase N155H,T97A and D6E, S17N, R20K, D25E, S39C, L45V,L101I, V201I, S119R, T124A, K160T, K211R, D288N mutation transfected into human C8166 cells assessed as decrease in compound susceptibility relative to wild-type
[4] = tested on: Human immunodeficiency virus 1; experiment: (§1) Antiviral activity against Human immunodeficiency virus 1 clone 4736_4 harboring integrase N155H, E92Q and D6E, S17N, R20K, D25E, S39C, L45V, L101I, T124A, K160T, V201I, K211R, D288N mutation transfected in human C8166 cells assessed as decrease in compound susceptibility relative to wild-type
[5] = tested on: Human immunodeficiency virus 1; experiment: as §1, with “4736_9” for “4736_4”, “E92Q H51Y” for “E92Q”, “S39C, D41H,” for “S39C,”, “V201I,K211R,” for “V201I, K211R,”
[6] = tested on: Human immunodeficiency virus 1; experiment: as §1, with “4736_10” for “4736_4”, “V151I, G163R” for “E92Q”
[7] = tested on: Human immunodeficiency virus 1; experiment: Antiviral activity against Human immunodeficiency virus 1 clone 1556 harboring integrase Y143C, L74M, T97A, S230R, K7R, S17N, R20K, L101I, K111Q, T112K, S119R, T206S, D256E, V259I mutation transfected in human C8166 cells assessed as decrease in compound susceptibility relative to wild-type
[8] = tested on: Human immunodeficiency virus 1; experiment: Antiviral activity against Human immunodeficiency virus 1 clone 8070_1 harboring integrase G140S, Y143H,Q148H and K14R, L101I, T112A, G193E, D229E, D279G mutation in transfected in human C8166 cells assessed as decrease in compound susceptibility relative to wild-type
[9] = tested on: Human immunodeficiency virus 1; experiment: Antiviral activity against Human immunodeficiency virus 1 clone 8070_2 harboring integrase G140S, Q148H, K14R, L63I, L101I, T112A, G193E, D229E, D279G mutation transfected in human C8166 cells assessed as decrease in compound susceptibility relative to wild-type
[10] = tested on: Human immunodeficiency virus 1; experiment: Antiviral activity against Human immunodeficiency virus 1 clone 4378 harboring integrase E157Q V31I, V32I, S39C, I72V, L101I, K160Q, F181L, V201I, Q216H, A265V mutation transfected in human C8166 cells assessed as decrease in compound susceptibility relative to wild-type

With Cc1nnc(C(=O)NC(C)(C)c2nc(C(=O)NCc3ccc(F)cc3)c(O)c(=O)n2C)o1 [RALTEGRAVIR] the “fold change (FC)” value [1] was 0.4, the “fold change (FC)” value [2] was 1.06 and the “fold change (FC)” value [3] was 116. The “fold change (FC)” value [4] was 96, the “fold change (FC)” value [5] was 94 and the “fold change (FC)” value [6] was 48. For the same compound, the “fold change (FC)” value [7] was greater than 200, the “fold change (FC)” value [8] was greater than 200 and the “fold change (FC)” value [9] was greater than 200. For the same compound, the “fold change (FC)” value [10] was 1.15.
